Reference: US9833497B2, “Human originated EGF domain proteins and use of the same” (CHENGDU SOURCEBIO LIMITED-LIABILITY COMPANY, priority 2013, dated 2017)

What was measured:
Format in all cases: cell-based
[1] = test system: Proteus vulgaris; test: MIC against Gram-negative bacteria: Proteus vulgaris; details: for MIC (μg/mL) P. vulgaris / MIC P. vulgaris: 5×10^5 CFU/mL
Procedure, shortened: (§1)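 Purified recombinant human EGF domain proteins are tested by broth dilution in LB against a 5×10^5 CFU/mL inoculum, with two-fold serial dilutions run in triplicate. Plates are incubated at 37° C with shaking, and the MIC is read as the lowest protein concentration without growth.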

[2] = test system: Pseudomonas aeruginosa; test: MIC against Gram-negative bacteria: Pseudomonas aeruginosa; details: for MIC (μg/mL) P. aeruginosa / MIC P. aeruginosa: 5×10^5 CFU/mL
Procedure, shortened: as §1

[3] = test system: E. coli BL21; test: MIC against Gram-negative bacteria: E. coli BL21; details: for MIC (μg/mL) E. coli BL21 / MIC E. coli BL21: 5×10^5 CFU/mL
Procedure, shortened: as §1

[4] = test system: Moraxella catarrhalis; test: MIC against Gram-negative bacteria: Moraxella catarrhalis; details: for MIC (μg/mL) M. catarrhalis / MIC M. catarrhalis: 5×10^5 CFU/mL
Procedure, shortened: as §1

[5] = test system: Klebsiella pneumonia; test: MIC against Gram-negative bacteria: Klebsiella pneumonia; details: for MIC (μg/mL) K. pneumonia / MIC K. pneumonia: 5×10^5 CFU/mL
Procedure, shortened: as §1

[6] = test system: Enterobacter cloacae; test: MIC against Gram-negative bacteria: Enterobacter cloacae; details: for MIC (μg/mL) E. cloacae / MIC E. cloacae: 5×10^5 CFU/mL
Procedure, shortened: as §1

[7] = test system: Citrobacter diversus; test: MIC against Gram-negative bacteria: Citrobacter diversus; details: for MIC (μg/mL) C. diversus / MIC C. diversus: 5×10^5 CFU/mL
Procedure, shortened: as §1

[8] = test system: Aeromonas hydrophila; test: MIC against Gram-negative bacteria: Aeromonas hydrophila; details: for MIC (μg/mL) A. hydrophila / MIC A. hydrophila: 5×10^5 CFU/mL
Procedure, shortened: as §1

[9] = test system: Serratia marcescens; test: MIC against Gram-negative bacteria: Serratia marcescens; details: for MIC (μg/mL) S. marcescens / MIC S. marcescens: 5×10^5 CFU/mL
Procedure, shortened: as §1

[10] = test system: E. coli DH5α; test: Antibacterial activity: MIC and growth curve against E. coli DH5α in 96-well plate; details: minimal inhibitory concentration against E. coli DH5α; 96-well plate, 5×10^5 CFU/mL, 37° C., judged after 8 h
Procedure, shortened: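 Log-phase DH5α (OD600 about 0.5, 37° C, 185 rpm in LB) was pelleted, resuspended in fresh LB and seeded at 5×10^5 CFU/mL with recombinant protein at 50, 25 and 12.5 μg/mL (two-fold series), in triplicate. Plates were shaken at 175 rpm, 37° C, and OD600 was read every 30 min. MIC was the lowest concentration with no growth.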

[11] = test system: Proteus mirabilis; test: MIC against Gram-negative bacteria: Proteus mirabilis; details: for MIC (μg/mL) P. mirabilis / MIC P. mirabilis: 5×10^5 CFU/mL
Procedure, shortened: as §1

[12] = P. vulgaris, 10 h cultivation at 37° C.
[13] = P. aeruginosa, 10 h cultivation at 37° C.
[14] = E. coli BL21, 10 h cultivation at 37° C.
[15] = M. catarrhalis, 10 h cultivation at 37° C.
[16] = K. pneumonia, 10 h cultivation at 37° C.
[17] = E. cloacae, 10 h cultivation at 37° C.
[18] = C. diversus, 10 h cultivation at 37° C.
[19] = A. hydrophila, 10 h cultivation at 37° C.
[20] = S. marcescens, 10 h cultivation at 37° C.
[21] = P. mirabilis, 10 h cultivation at 37° C.
[22] = Proteus vulgaris, 96-well plate, 37° C., 10 h
[23] = Pseudomonas aeruginosa, 96-well plate, 37° C., 10 h
[24] = E. coli BL21, 96-well plate, 37° C., 10 h
[25] = Moraxella catarrhalis, 96-well plate, 37° C., 10 h
[26] = Klebsiella pneumonia, 96-well plate, 37° C., 10 h
[27] = Enterobacter cloacae, 96-well plate, 37° C., 10 h
[28] = Citrobacter diversus, 96-well plate, 37° C., 10 h
[29] = Aeromonas hydrophila, 96-well plate, 37° C., 10 h
[30] = Serratia marcescens, 96-well plate, 37° C., 10 h
[31] = Proteus mirabilis, 96-well plate, 37° C., 10 h
[32] = 10 h cultivation at 37° C., two-fold serial dilution

PRT162 (LIDFCALSPCAHGTCRSVGTSYKCLCDPGYHGLYCE; listed as Homo sapiens)
MIC (μg/mL) P. vulgaris [1, 12]: 12.5 µg/mL | MIC (μg/mL) P. aeruginosa [2, 13]: 12.5 µg/mL | MIC (μg/mL) E. coli BL21 [3, 14]: 25 µg/mL | MIC (μg/mL) M. catarrhalis [4, 15]: 12.5 µg/mL | MIC (μg/mL) K. pneumonia [5, 16]: 25 µg/mL | MIC (μg/mL) E. cloacae [6, 17]: 12.5 µg/mL | MIC (μg/mL) C. diversus [7, 18]: 12.5 µg/mL | MIC (μg/mL) A. hydrophila [8, 19]: 25 µg/mL | MIC (μg/mL) S. marcescens [9, 20]: 25 µg/mL | MIC [10]: 12.5 µg/mL | MIC (μg/mL) P. mirabilis [11, 21]: 100 µg/mL

PRT199 (CLPETCNMKGICNNKHHCHCGYGWSPPYCQ; listed as Homo sapiens)
MIC (μg/mL) P. vulgaris [1, 12]: 12.5 µg/mL | MIC (μg/mL) P. aeruginosa [2, 13]: 12.5 µg/mL | MIC (μg/mL) E. coli BL21 [3, 14]: 12.5 µg/mL | MIC (μg/mL) M. catarrhalis [4, 15]: 12.5 µg/mL | MIC (μg/mL) K. pneumonia [5, 16]: 12.5 µg/mL | MIC (μg/mL) E. cloacae [6, 17]: 12.5 µg/mL | MIC (μg/mL) C. diversus [7, 18]: 12.5 µg/mL | MIC (μg/mL) A. hydrophila [8, 19]: 12.5 µg/mL | MIC (μg/mL) S. marcescens [9, 20]: 25 µg/mL | MIC [10]: 25 µg/mL | MIC (μg/mL) P. mirabilis [11, 21]: 12.5 µg/mL

PRT692 (DVDECATGGRCQHGECANTRGGYTCVCPDGFLLDSSRSSCI; listed as Homo sapiens)
MIC P. vulgaris ([1]; 96-well plate, 37° C., 10 h): 25 µg/mL | MIC P. aeruginosa ([2]; 96-well plate, 37° C., 10 h): 12.5 µg/mL | MIC E. coli BL21 ([3]; 96-well plate, 37° C., 10 h): 25 µg/mL | MIC M. catarrhalis ([4]; 96-well plate, 37° C., 10 h): 25 µg/mL | MIC K. pneumonia ([5]; 96-well plate, 37° C., 10 h): 50 µg/mL | MIC E. cloacae ([6]; 96-well plate, 37° C., 10 h): 25 µg/mL | MIC C. diversus ([7]; 96-well plate, 37° C., 10 h): 50 µg/mL | MIC A. hydrophila ([8]; 96-well plate, 37° C., 10 h): 12.5 µg/mL | MIC S. marcescens ([9]; 96-well plate, 37° C., 10 h): 50 µg/mL | MIC [10]: 50 µg/mL | MIC P. mirabilis ([11]; 96-well plate, 37° C., 10 h): 12.5 µg/mL

PRT90 (CDCYPVGSTSRSCAPHSGQCPCRPGALGRQCNSCDSPFAEVTASGCRV; listed as Homo sapiens)
MIC (μg/mL) P. vulgaris [1, 22]: 12.5 µg/mL | MIC (μg/mL) P. aeruginosa [2, 23]: 12.5 µg/mL | MIC (μg/mL) E. coli BL21 [3, 24]: 12.5 µg/mL | MIC (μg/mL) M. catarrhalis [4, 25]: 12.5 µg/mL | MIC (μg/mL) K. pneumonia [5, 26]: 12.5 µg/mL | MIC (μg/mL) E. cloacae [6, 27]: 12.5 µg/mL | MIC (μg/mL) C. diversus [7, 28]: 25 µg/mL | MIC (μg/mL) A. hydrophila [8, 29]: 12.5 µg/mL | MIC (μg/mL) S. marcescens [9, 30]: 12.5 µg/mL | MIC [10]: 50 µg/mL | MIC (μg/mL) P. mirabilis [11, 31]: 25 µg/mL

PRT43 (CKCNGHASLCNTNTGKCFCTTKGVKGDECQLCEVENRYQGNPLRGTCYY; listed as Homo sapiens)
MIC (μg/mL) P. vulgaris [1, 22]: 25 µg/mL | MIC (μg/mL) P. aeruginosa [2, 23]: 12.5 µg/mL | MIC (μg/mL) E. coli BL21 [3, 24]: 25 µg/mL | MIC (μg/mL) M. catarrhalis [4, 25]: 25 µg/mL | MIC (μg/mL) K. pneumonia [5, 26]: 25 µg/mL | MIC (μg/mL) E. cloacae [6, 27]: 12.5 µg/mL | MIC (μg/mL) C. diversus [7, 28]: 12.5 µg/mL | MIC (μg/mL) A. hydrophila [8, 29]: 25 µg/mL | MIC (μg/mL) S. marcescens [9, 30]: 12.5 µg/mL | MIC [10]: 12.5 µg/mL | MIC (μg/mL) P. mirabilis [11, 31]: 12.5 µg/mL

PRT1049 (WGENCAQTCQCHHGGTCHPQDGSCICPLGWTGHHCL; listed as Homo sapiens)
MIC P. vulgaris [1, 32]: 12.5 µg/mL | MIC P. aeruginosa [2, 32]: 12.5 µg/mL | MIC E. coli BL21 [3, 32]: 25 µg/mL | MIC M. catarrhalis [4, 32]: 12.5 µg/mL | MIC K. pneumonia [5, 32]: 25 µg/mL | MIC E. cloacae [6, 32]: 12.5 µg/mL | MIC C. diversus [7, 32]: 12.5 µg/mL | MIC A. hydrophila [8, 32]: 12.5 µg/mL | MIC S. marcescens [9, 32]: 50 µg/mL | MIC [10]: 12.5 µg/mL | MIC P. mirabilis [11, 32]: 50 µg/mL

PRT812 (YGKHCRKKCNCANRGRCHRLYGACLCDPGLYGRFCH; listed as Homo sapiens)
MIC (μg/mL) P. vulgaris [1, 12]: 50 µg/mL | MIC (μg/mL) P. aeruginosa [2, 13]: 12.5 µg/mL | MIC (μg/mL) E. coli BL21 [3, 14]: 12.5 µg/mL | MIC (μg/mL) M. catarrhalis [4, 15]: 50 µg/mL | MIC (μg/mL) K. pneumonia [5, 16]: 25 µg/mL | MIC (μg/mL) E. cloacae [6, 17]: 50 µg/mL | MIC (μg/mL) C. diversus [7, 18]: 12.5 µg/mL | MIC (μg/mL) A. hydrophila [8, 19]: 25 µg/mL | MIC (μg/mL) S. marcescens [9, 20]: 12.5 µg/mL | MIC [10]: 12.5 µg/mL | MIC (μg/mL) P. mirabilis [11, 21]: 12.5 µg/mL

PRT26 (CDSGPCKNSGFCSERWGSFSCDCPVGFGGKDCQ; listed as Homo sapiens)
MIC (μg/mL) P. vulgaris [1, 22]: 12.5 µg/mL | MIC (μg/mL) P. aeruginosa [2, 23]: 25 µg/mL | MIC (μg/mL) E. coli BL21 [3, 24]: 12.5 µg/mL | MIC (μg/mL) M. catarrhalis [4, 25]: 12.5 µg/mL | MIC (μg/mL) K. pneumonia [5, 26]: 12.5 µg/mL | MIC (μg/mL) E. cloacae [6, 27]: 25 µg/mL | MIC (μg/mL) C. diversus [7, 28]: 25 µg/mL | MIC (μg/mL) A. hydrophila [8, 29]: 12.5 µg/mL | MIC (μg/mL) S. marcescens [9, 30]: 25 µg/mL | MIC [10]: 25 µg/mL | MIC (μg/mL) P. mirabilis [11, 31]: 25 µg/mL

PRT1036 (VEDKCEKACRPEEECLALNSTWGCFCRQDLNSSDVHSLQPQLDCG; listed as Homo sapiens)
MIC [1, 12]: 50 µg/mL | MIC [2, 13]: 25 µg/mL | MIC [3, 14]: 50 µg/mL | MIC [4, 15]: 12.5 µg/mL | MIC [5, 16]: 25 µg/mL | MIC [6, 17]: 50 µg/mL | MIC [7, 18]: 50 µg/mL | MIC [8, 19]: 12.5 µg/mL | MIC [9, 20]: 50 µg/mL | MIC [10]: 25 µg/mL | MIC [11, 21]: 50 µg/mL

PRT233 (DSRGCARWCPQDSSCVNATACRCNPGFSSFSEIITTPMETCD; listed as Homo sapiens)
MIC (μg/mL) P. vulgaris [1, 12]: 25 µg/mL | MIC (μg/mL) P. aeruginosa [2, 13]: 12.5 µg/mL | MIC (μg/mL) E. coli BL21 [3, 14]: 25 µg/mL | MIC (μg/mL) M. catarrhalis [4, 15]: 25 µg/mL | MIC (μg/mL) K. pneumonia [5, 16]: 25 µg/mL | MIC (μg/mL) E. cloacae [6, 17]: 12.5 µg/mL | MIC (μg/mL) C. diversus [7, 18]: 12.5 µg/mL | MIC (μg/mL) A. hydrophila [8, 19]: 25 µg/mL | MIC (μg/mL) S. marcescens [9, 20]: 12.5 µg/mL | MIC [10]: 12.5 µg/mL | MIC (μg/mL) P. mirabilis [11, 21]: 100 µg/mL

PRT178 (SGVTCADGPCFNGGLCVGGADPDSAYICHCPPGFQGSNCE; listed as Homo sapiens)
MIC (μg/mL) P. vulgaris [1, 12]: 12.5 µg/mL | MIC (μg/mL) P. aeruginosa [2, 13]: 25 µg/mL | MIC (μg/mL) E. coli BL21 [3, 14]: 50 µg/mL | MIC (μg/mL) M. catarrhalis [4, 15]: 12.5 µg/mL | MIC (μg/mL) K. pneumonia [5, 16]: 12.5 µg/mL | MIC (μg/mL) E. cloacae [6, 17]: 50 µg/mL | MIC (μg/mL) C. diversus [7, 18]: 50 µg/mL | MIC (μg/mL) A. hydrophila [8, 19]: 12.5 µg/mL | MIC (μg/mL) S. marcescens [9, 20]: 25 µg/mL | MIC [10]: 25 µg/mL | MIC (μg/mL) P. mirabilis [11, 21]: 50 µg/mL
